Data reported in patent US20250332167A1, “PHARMACEUTICAL USE OF CDK 4/6 INHIBITOR” (priority 2021, published 2025).

Test system: SNU-761
Experiment: Proliferation inhibition, non-small cell lung cancer cell line SNU-761
Type: cell-based
Conditions: Homo sapiens; SNU-761, 72 h
Procedure: Sixteen non-small cell lung cancer cell lines, including NCI-H1792, NCI-H1703, NCI-H441, SNU-761, NCI-H1975, NCI-H358, NCI-H1838, NCI-H1915, A549, SK-MES-1, NCI-H292, PC-9, NCI-H460, NCI-H23, NCI-H1581, and HLF, were used for the proliferation inhibition assay of the present invention compound. […] The cell detection equipment used was In Cell Analyzer 2200 (GE Healthcare).
With 60 μM as the initial concentration, ten points were obtained by serial five-fold dilution.
Each kind of cell in logarithmic growth phase was inoculated with 4000 cells/100 μl/well into a black transparent bottom 96-well plate and cultured overnight at 37° C. The next day, the plate was taken out, and 20 μL of the prepared sample dilutions was added to each well. The plate was then subjected to treatment at 37° C. for 72 hours. After the treatment period of 72 hours, the plate was taken out and 50 μL of neutral formaldehyde fixative (formaldehyde: PBS=1:9, 50 μl/well) was added to each well. The plate was then fixed at room temperature for 10-30 minutes. Subsequently, the wells were washed twice with 1× PBS (100 μl/well) and treated with 0.2% Triton™-X100 for 5-10 minutes to permeabilize the cells. […] The inhibitory rates of each compound at different concentration points were calculated by using the following formula, and IC50 values were obtained through curve fitting using GraphPad Prism 6.0 software.

## CC1=Nc2c(F)cc(-c3nc(Nc4ccc(C5CCN(C)CC5)cn4)ncc3F)cc2C12CCCC2.O=C(O)/C=C/C(=O)O [Compound A, Fumarate salt of 5-fluoro-4-(7′-fluoro-2′-methylspiro[cyclopentane-1,3′-indol]-5′-yl)-N-(5-(1-methylpiperidin-4-yl)pyridin-2-yl)pyrimidine-2-amine]
  IC50: 8 nM
